Laboratory results published in patent US7019029B2, “Skin whiteners containing hydroxytetronic acid derivatives” (priority 2000, dated 2006).

Test system: hyperpigmented skin areas of melasma patients
Assay: Study in melasma patients: topical treatment of hyperpigmented skin areas
Assay type: in vivo, human
Conditions: oil-in-water emulsion containing about 10% compound, twice daily for 5 to 7 days, 4 melasma patients, observed in all the patients
Method: The efficacy of a preferred embodiment of the invention was tested in a clinical trial. An oil-in-water emulsion containing about 10% 4-diphenyl-2-hydroxytetronic acid was applied to various pigmented areas of the skin of 10 subjects twice daily. On normal pigmented skin types 2 and 3, visually apparent lightening was observed within 4 to 6 hours of application when compared to surrounding, untreated skin areas of the same subject. In another study, the hyperpigmented skin areas of 4 melasma patients were treated twice daily for 5 to 7 days.

In the case of `O=C1OC(c2ccccc2)(c2ccccc2)C(O)=C1O` [4-diphenyl-2-hydroxytetronic acid, 3,4-dihydroxy-5-diphenyl-2(5H)-furanone], the “lightening of the pigmented lesions” value is reported as “Significant lightening”.
